In patent US20120029045A1, “METHOD FOR TREATING PORT WINE STAINS” (SHANGHAI FUDAN-ZHANGJIANG BIO-PHARMACEUTICAL CO., LTD., priority 2010, published 2012):

What was measured:
[1] = Dynamic change of the concentration of HpD and HMME in chicken blood; type: in vivo; conditions: 10 mg/kg neck vein
Procedure: HpD and HMME in chicken blood were monitored at various times after injection. HpD or HMME was injected in chicken neck veins at a dose of 10 mg/kg, taking a blood sample every 10 minutes following injection. […] The two curves shown in FIG. 2 have generally the same pattern.

[2] = Pharmacokinetics of HMME in human body; type: in vivo
Procedure: Porphyrin-based photosensitizing drugs were injected intravenously at a dose of 2.5 and 5.0 mg/kg body weight for 20 minutes with a constant flow rate, and the pharmokinetics measured. Blood samples were taken at 5, 10, 20, 25, 30, 40, 50, 80, 110, 140, 200, 260 and 380 minutes separately to measure the serum concentrations of porphyrin-based photosensitizing drugs.

[3] = PDT for PWS, adverse effects and crust levels; type: in vivo, human
Procedure: A solution of 1 ml saline was injected in the superficial vein (e.g. median cubital vein) of patients to ensure no liquid leaked into tissues adjacent to the blood vessels into which the injection was made. At the same site, HMME was injected intravenously for 20 minutes with a constant flow rate by using an infusion pump. The doses applied were 2.5 mg/kg body weight or 5.0 mg/kg body weight. Next, 2-4 ml of saline solution was again injected to prevent the drugs from aggregating locally. Irradiation with KTP532 laser was then applied to the patient's lesion site 0-10 minutes after the start of injection, for a total duration of irradiation of either 20 minutes (denoted as the 20 min group), or 30 minutes (denoted as the 30 minute group). […] When irradiation was started immediately after the start of injection, the overlap between the injection and irradiation was about 20 minutes, when irradiation started 5 minutes after the start of injection, the overlap between drug injection and light irradiation was approximately 15 minutes, and when irradiation was started 10 minutes after the start of injection, the overlap was about 10 minutes. The therapeutic results were measured 8 weeks after the treatment. The most common adverse temporary effects included swelling, burning, redness, pain, blister and crust formation in PDT for PWS and these symptoms occurred in almost every case. Scar or crust thickness was measured as thickening of crusts. The crust levels served as an assessment index for scars.

[4] = 2.5 mg/kg iv over 20 min at constant flow rate
[5] = 5.0 mg/kg iv over 20 min at constant flow rate
[6] = Part A, 5.0 mg/kg, patients treated for 20 min
[7] = Part B, 2.5 mg/kg group, irradiated 20 min
[8] = Part B, 5.0 mg/kg group, irradiated 20 min
[9] = Part B, 2.5 and 5.0 mg/kg, irradiated 20 min

hematoporphyrin monomethyl ether [HMME]
Photosensitizer concentration in chicken blood ([1]; post-injection time 10 min): 6.83 µg/mL
Photosensitizer concentration in chicken blood ([1]; post-injection time 20 min): 5.92 µg/mL
Photosensitizer concentration in chicken blood ([1]; post-injection time 30 min): 5.33 µg/mL
Photosensitizer concentration in chicken blood ([1]; post-injection time 40 min): 4.83 µg/mL
Photosensitizer concentration in chicken blood ([1]; post-injection time 50 min): 4.49 µg/mL
Photosensitizer concentration in chicken blood ([1]; post-injection time 60 min): 4.17 µg/mL
Photosensitizer concentration in chicken blood ([1]; post-injection time 70 min): 3.83 µg/mL
Photosensitizer concentration in chicken blood ([1]; post-injection time 80 min): 3.58 µg/mL
Photosensitizer concentration in chicken blood ([1]; post-injection time 90 min): 3.51 µg/mL
Photosensitizer concentration in chicken blood ([1]; post-injection time 100 min): 2.67 µg/mL
Photosensitizer concentration in chicken blood ([1]; post-injection time 110 min): 2.42 µg/mL
Photosensitizer concentration in chicken blood ([1]; post-injection time 120 min): 1.99 µg/mL
time after injection at which serum concentration reaches a peak ([1]; chicken): 10 min
AUC0˜n [2, 4]: 6342 ± 2824 ng·h/mL
Cmax [2, 4]: 17491 ± 7045 ng/mL
t1/2 [2, 4]: 1.26 ± 0.33 h
AUC0˜n [2, 5]: 17531 ± 3467 ng·h/mL
Cmax [2, 5]: 35724 ± 4539 ng/mL
t1/2 [2, 5]: 1.31 ± 0.33 h
Blister, Mild (cases) ([3]; 5.0 mg/kg, 20 min group): 0
Blister, Moderate (cases) ([3]; 5.0 mg/kg, 20 min group): 0
Blister, Rate (%) ([3]; 5.0 mg/kg, 20 min group): 0.0%
Blister, total (cases) ([3]; 5.0 mg/kg, 20 min group): 10
Burning, Mild (cases) ([3]; 5.0 mg/kg, 20 min group): 0
Burning, Moderate (cases) ([3]; 5.0 mg/kg, 20 min group): 0
Burning, Rate (%) ([3]; 5.0 mg/kg, 20 min group): 0.0%
Burning, total (cases) ([3]; 5.0 mg/kg, 20 min group): 0
Pain, Mild (cases) ([3]; 5.0 mg/kg, 20 min group): 1
Pain, Moderate (cases) ([3]; 5.0 mg/kg, 20 min group): 9
Pain, Rate (%) ([3]; 5.0 mg/kg, 20 min group): 50.0%
Pain, total (cases) ([3]; 5.0 mg/kg, 20 min group): 10
Redness, Mild (cases) ([3]; 5.0 mg/kg, 20 min group): 0
Redness, Moderate (cases) ([3]; 5.0 mg/kg, 20 min group): 0
Redness, Rate (%) ([3]; 5.0 mg/kg, 20 min group): 0.0%
Redness, total (cases) ([3]; 5.0 mg/kg, 20 min group): 0
Swelling, Mild (cases) ([3]; 5.0 mg/kg, 20 min group): 9
Swelling, Moderate (cases) ([3]; 5.0 mg/kg, 20 min group): 9
Swelling, Rate (%) ([3]; 5.0 mg/kg, 20 min group): 90.0%
Swelling, total (cases) ([3]; 5.0 mg/kg, 20 min group): 18
crust level Moderate thick and fractional, (%) ([3]; 5.0 mg/kg, 20 min group): (5.0) %
crust level Moderate thick and full, (%) ([3]; 5.0 mg/kg, 20 min group): (0.0) %
crust level None, (%) ([3]; 5.0 mg/kg, 20 min group): (25.0) %
crust level Thin and fractional, (%) ([3]; 5.0 mg/kg, 20 min group): (50.0) %
crust level Thin and full, (%) ([3]; 5.0 mg/kg, 20 min group): (20.0) %
Blister, Mild (cases) ([3]; 5.0 mg/kg, 30 min group): 2
Blister, Moderate (cases) ([3]; 5.0 mg/kg, 30 min group): 0
Blister, Rate (%) ([3]; 5.0 mg/kg, 30 min group): 10.0%
Blister, total (cases) ([3]; 5.0 mg/kg, 30 min group): 2
Burning, Mild (cases) ([3]; 5.0 mg/kg, 30 min group): 0
Burning, Moderate (cases) ([3]; 5.0 mg/kg, 30 min group): 1
Burning, Rate (%) ([3]; 5.0 mg/kg, 30 min group): 5.0%
Burning, total (cases) ([3]; 5.0 mg/kg, 30 min group): 1
Pain, Mild (cases) ([3]; 5.0 mg/kg, 30 min group): 3
Pain, Moderate (cases) ([3]; 5.0 mg/kg, 30 min group): 12
Pain, Rate (%) ([3]; 5.0 mg/kg, 30 min group): 75.0%
Pain, total (cases) ([3]; 5.0 mg/kg, 30 min group): 15
Redness, Mild (cases) ([3]; 5.0 mg/kg, 30 min group): 0
Redness, Moderate (cases) ([3]; 5.0 mg/kg, 30 min group): 2
Redness, Rate (%) ([3]; 5.0 mg/kg, 30 min group): 10.0%
Redness, total (cases) ([3]; 5.0 mg/kg, 30 min group): 2
Swelling, Mild (cases) ([3]; 5.0 mg/kg, 30 min group): 6
Swelling, Moderate (cases) ([3]; 5.0 mg/kg, 30 min group): 12
Swelling, Rate (%) ([3]; 5.0 mg/kg, 30 min group): 90.0%
Swelling, total (cases) ([3]; 5.0 mg/kg, 30 min group): 18
crust level Moderate thick and fractional, (%) ([3]; 5.0 mg/kg, 30 min group): (5.0) %
crust level Moderate thick and full, (%) ([3]; 5.0 mg/kg, 30 min group): (15.0) %
crust level None, (%) ([3]; 5.0 mg/kg, 30 min group): (15.0) %
crust level Thin and fractional, (%) ([3]; 5.0 mg/kg, 30 min group): (25.0) %
crust level Thin and full, (%) ([3]; 5.0 mg/kg, 30 min group): (40.0) %
severity of adverse effects ([3]; Part A, 5.0 mg/kg, irradiation 20 or 30 min): mild or moderate
scars [3, 6]: no scars were present
serious-thick crusts [3, 6]: No serious-thick crusts occurred
Crust Total, Rate (%) [3, 7]: 34.7%
Crust level Mild, Rate (%) [3, 7]: 34.7%
Crust level Moderate, Rate (%) [3, 7]: 0.0%
Crust level Serious, Rate (%) [3, 7]: 0.0%
Crust Total, Rate (%) [3, 8]: 88.01%
Crust level Mild, Rate (%) [3, 8]: 60.0%
Crust level Moderate, Rate (%) [3, 8]: 28.0%
Crust level Serious, Rate (%) [3, 8]: 0.0%
scars [3, 9]: no scars were formed
serious-thick crusts [3, 9]: No serious-thick crusts occurred
